Experimental data reported in patent US20260027094A1, “USE OF PYRIDONE DERIVATIVE” (GUANGZHOU JOYO PHARMATECH CO., LTD, priority 2022, published 2026).

Test system: carbon tetrachloride-induced SD rat models of liver fibrosis
Experiment: In vivo pharmacodynamic study on carbon tetrachloride-induced rat models of liver fibrosis
Design: species or system SD rats
Settings: for Liver fibrosis score (points): Sirius Red staining, model control 4.90 ± 0.88; for Liver CVF (%): model control 8.75 ± 2.39, normal 1.24 ± 0.23; for Liver HYP content: model control 702.84 ± 173.44, normal 307.30 ± 78.13
Source text: • 1) Animals: SD rats, specific pathogen-free (SPF) grade, male, aged 7 to 8 weeks at the time of grouping, with 10 mice per group. The animals were supplied by Beijing HFK Bioscience Co., Ltd. • 2) Reagents, positive drugs, and test drugs • A. Reagents
• B. Positive Drug: Pirfenidone, Supplied by Biochempartner. • C. Test Drug: compound I, supplied by Guangzhou JOYO Pharmatech Co., Ltd. • 3) Modeling method
Intraperitoneal injection method of carbon tetrachloride: After the adaptation period inspection and observation were qualified, experimental animals were screened by body weight and randomly divided into a normal control group and a model induction group. Starting on the first day of grouping, animals in the model induction group were intraperitoneally injected with a 20% carbon tetrachloride solution dissolved in corn oil, at a modeling frequency of twice a week for six consecutive weeks. After two weeks of carbon tetrachloride induction, animals in the model induction group were randomly subdivided a second time into 5 experimental groups based on their alanine transaminase (ALT) levels (with body weight used as a calibration factor), including the model control group, positive drug treatment group, test compound low dose treatment group, test compound medium dose treatment group, and test compound high dose treatment group. Animals in the normal control group were administered the corresponding vehicle. The experimental period lasted for 6 weeks, during which all animals were given normal access to water and food. • 4) Grouping and administration info
• a: The test compound vehicle was an aqueous solution of 0.5% (w/v) methylcellulose and 0.2% (v/v) Tween 80. • b: An aqueous solution of 0.5% (w/v) methylcellulose and 0.2% (v/v) Tween 80 was used as the vehicle and prepared to the required concentration. • 5) Endpoint sample collection, histopathological analysis, and hydroxyproline content analysis. • A. After euthanizing the animals with pentobarbital sodium anesthesia, the liver was excised and rinsed with normal saline. The liver was divided into three segments: the large lobe, the left lobe, and the right-middle lobe. The large lobe tissue was quickly frozen in liquid nitrogen and stored in a −80° C. refrigerator for measuring the total hydroxyproline levels of animal liver samples in each group. The tissues of left lobe and right-middle lobe of liver were fixed in 10% formaldehyde, embedded in paraffin, and sectioned into 3 μm-thick slices. These slices were then deparaffinized in xylene, rehydrated through a graded ethanol series, subjected to Sirius Red staining, dehydrated, cleared, sealed, and observed under a microscope to capture histopathological changes. Routine tissue freezing was performed. • B. Analysis of fibrosis levels in liver tissue sections;
Based on Sirius Red staining results of liver sections, 1) fibrosis staging was scored according to the scoring criteria listed in Table 3; 2) using Image J, the liver fibrotic area and the total sample area of animals in each experimental group were counted to calculate the collagen volume fraction (CVF %) for each sample. • C. Detection of hydroxyproline levels in liver
The liver large lobe samples were processed according to the instructions using the hydroxyproline detection kit. The total hydroxyproline levels in the liver samples of animals in each group were detected.

[1] = Compound I high dose 30 mg/kg twice a day for 4 weeks
[2] = Compound I low dose 3 mg/kg twice a day for 4 weeks
[3] = Compound I medium dose 10 mg/kg twice a day for 4 weeks

CC1(c2ccc(=O)n(-c3ccsc3)c2)COC1 [Compound I]
Efficacy evaluation result (conclusion) (Compound I 3.0, 10.0 and 30.0 mg/kg twice a day, 4 weeks): significant therapeutic effect | Liver fibrosis score (points) (Compound I high dose 30 mg/kg oral gavage twice a day for 4 weeks): 4.20 ± 0.92 points | Liver CVF (%) [1]: 5.60 ± 1.92 % | Liver HYP content [1]: 607.79 ± 112.74 µg/g | Liver fibrosis score (points) (Compound I low dose 3 mg/kg oral gavage twice a day for 4 weeks): 4.40 ± 0.70 points | Liver CVF (%) [2]: 5.02 ± 1.42 % | Liver HYP content [2]: 716.17 ± 105.01 µg/g | Pseudolobular structure of the liver under light microscope (Compound I medium and high dose treatment groups (10, 30 mg/kg twice a day), some animals, Sirius Red): tended to disintegrate | Liver fibrosis score (points) (Compound I medium dose 10 mg/kg oral gavage twice a day for 4 weeks): 4.00 ± 0.94 points | Liver CVF (%) [3]: 4.87 ± 1.68 % | Liver HYP content [3]: 560.60 ± 114.04 µg/g | Hepatocyte fat degeneration and swelling degeneration in the central vein area of the liver (each Compound I treatment group vs model control, medium and high dose most obvious): reduced to some extent
